# Tested on: pads of fat near the waist ("love handles")
# Conditions: patient; niacin 500 mg rising to 1500 mg/day orally by tablet over 14 days; 635 nm diode laser, max 10 mW, 30 min scanning sessions
compound,measurement,value
"O=C(O)c1cccnc1 [niacin, nicotinic acid]",Fat reduction: love handles after treatment,reduced
